Data published in patent US11753377B2, “Crystal form of 2-methyl-2-propanol and amino-substituted aryl compound” (ZHUHAI UNITED LABORATORIES CO., LTD., priority 2020, dated 2023).
Where two headings read alike, the source gives them in different places.

What was measured:
[1] = In vitro aldehyde capture capacity experiment (complexation with nonanal, HPLC at 254 nm)
Description: Experimental Embodiment 1: In Vitro Aldehyde Capture Capacity Experiment
1. Experiment Objectives and Processes
Objectives: Xerophthalmia is caused by inflammation inside the eyes, wherein the inflammation may produce aldehydes in the body that will accelerate the inflammation symptoms and worsen the xerophthalmia if not eliminated in time. In the experiment, a relatively good compound was selected according to the complexing capacity of the drug and aldehydes in vivo by simulating the in vivo environment.
Processes: Sulfobutyl-B-cyclodextrin (310 mg) was dissolved in a phosphate buffer (1.25 mL) to prepare a solution.
Nonanal (5.0 mg, 32 μmol, 1.0 eq) and triolein (300 mg) were added to a reaction flask at room temperature, after the prepared solution described above was added thereto, linoleic acid (300 mg) was added thereto, and finally a dimethyl sulfoxide (0.15 mL) solution containing the compound (32 μmol, 1.0 eq) of the present disclosure was added thereto; the reaction solution was reacted at 20-23° C.
The reaction solution was reacted under stirring for 10 min, 100 min, 200 min, and 300 min respectively, and sampled for high performance liquid chromatography after the solution was stratified after standing for 2 min.
Sampling method: 25 μL of an upper emulsified layer and 50 μL of a lower aqueous layer were sampled by a pipette, and samples were diluted with 1 mL of methanol.
Therefore, the percentage contents of complexes at 254 nm under high performance liquid chromatography were compared to observe the ability of compounds to capture and complex aldehydes, as shown in FIG. 4 and Table 6:
The HPLC analysis method is detailed in Table 7, which is XBRIGE 2.5 μm, 3.0*100 mm 5-80CD_XBEH_12 min_0.8.lcm
After 300 min of reaction, retention times of 6.689 min, 6.787 min, 6.966 min, and 7.102 min were absorption peaks of products complexed with monomolecular aldehyde; retention times of 8.905 min, 9.010 min, and 9.075 min were absorption peaks of products complexed with bimolecular aldehyde.

CYP1A2 = target: T1, CYP1A2 (Homo sapiens, UniProt P05177); assay: Inhibition of human liver microsomal cytochrome P450 CYP1A2; format: in vitro ADME; conditions: pooled human liver microsomes, probe substrate, NADPH
T1 construct: pooled human liver microsomes were selected as a CYP450 enzyme source; from tissue; host or cells: pooled human liver microsomes
T1 sequence (P05177 1-516): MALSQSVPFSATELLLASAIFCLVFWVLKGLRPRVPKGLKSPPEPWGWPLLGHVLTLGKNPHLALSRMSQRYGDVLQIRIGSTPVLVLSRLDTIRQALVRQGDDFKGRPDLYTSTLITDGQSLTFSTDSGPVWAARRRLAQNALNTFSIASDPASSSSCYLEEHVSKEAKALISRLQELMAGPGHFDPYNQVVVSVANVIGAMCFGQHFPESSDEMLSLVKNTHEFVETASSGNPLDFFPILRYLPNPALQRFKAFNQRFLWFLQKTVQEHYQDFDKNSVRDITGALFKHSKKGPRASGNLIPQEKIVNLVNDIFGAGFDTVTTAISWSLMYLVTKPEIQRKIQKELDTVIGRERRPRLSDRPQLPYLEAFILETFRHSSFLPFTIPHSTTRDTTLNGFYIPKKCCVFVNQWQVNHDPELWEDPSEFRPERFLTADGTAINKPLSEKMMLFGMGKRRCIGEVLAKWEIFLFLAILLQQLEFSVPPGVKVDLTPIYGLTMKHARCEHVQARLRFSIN
Description: (§1) Experimental objective: To study the inhibitory effect of compounds on human liver microsomal cytochrome P450. Experimental processes: In the study on inhibition of the compounds on the human liver microsomal cytochrome P450 (CYP1A2, CYP2C9, CYP2C19, CYP2D6 and CYP3A4), pooled human liver microsomes were selected as a CYP450 enzyme source.

CYP2C9 = target: T2, CYP2C9 (Homo sapiens, UniProt P11712); assay: Inhibition of human liver microsomal cytochrome P450 CYP2C9; format: in vitro ADME; conditions: pooled human liver microsomes, probe substrate, NADPH
T2 construct: pooled human liver microsomes were selected as a CYP450 enzyme source; from tissue; host or cells: pooled human liver microsomes
Description: as §1

CYP2C19 = target: T3, CYP2C19 (Homo sapiens, UniProt P33261); assay: Inhibition of human liver microsomal cytochrome P450 CYP2C19; format: in vitro ADME; conditions: pooled human liver microsomes, probe substrate, NADPH
T3 construct: pooled human liver microsomes were selected as a CYP450 enzyme source; from tissue; host or cells: pooled human liver microsomes
Description: as §1

CYP2D6 = target: T4, CYP2D6 (Homo sapiens, UniProt P10635); assay: Inhibition of human liver microsomal cytochrome P450 CYP2D6; format: in vitro ADME; conditions: pooled human liver microsomes, probe substrate, NADPH
T4 construct: pooled human liver microsomes were selected as a CYP450 enzyme source; from tissue; host or cells: pooled human liver microsomes
Description: as §1

CYP3A4 = target: T5, CYP3A4 (Homo sapiens, UniProt P08684); assay: Inhibition of human liver microsomal cytochrome P450 CYP3A4; format: in vitro ADME; conditions: pooled human liver microsomes, two probe substrates, NADPH
T5 construct: pooled human liver microsomes were selected as a CYP450 enzyme source; from tissue; host or cells: pooled human liver microsomes
Description: as §1

[2] = Pharmacokinetics in Beagle dogs, single intravenous injection; format: in vivo; conditions: male, dog, plasma, 1 mg/kg single intravenous injection
Experimental: Experimental objective: To study pharmacokinetics of the compound in Beagle dogs
Experimental material: Beagle dogs (male, 8-11 kg, greater than or equal to 6 months, Marshall)
(§2) Pharmacokinetic characteristics of the compound were tested by intravenous injection in rodents according to the standard protocol. In the experiment, the candidate compound was prepared as a clear solution, and was administrating to Beagle dogs at 1 mg/kg by single intravenous injection. A vehicle for intravenous injection was a 10% hydroxypropyl β-cyclodextrin aqueous solution. Whole blood samples were collected at 0.033, 0.083, 0.25, 0.5, 1, 2, 4, 8, 12, and 24 hours, respectively, centrifuged at 3000 r for 10 min, and the supernatant was separated to obtain plasma samples. 20 μL of plasma samples were mixed with 400 μL of acetonitrile solution containing internal standard to precipitate protein, and the mixture was centrifuged, then 2 μL of the supernatant was injected. Plasma concentrations were quantitatively analyzed by LC-MS/MS analysis method, and pharmacokinetic parameters, such as clearance rate, half-life, and area under the concentration-time curve, were calculated.

[3] = Pharmacokinetics in cynomolgus monkeys, single intravenous injection; format: in vivo; conditions: male, cynomolgus monkey, plasma, 1 mg/kg single intravenous injection
Experimental: Experimental objective: To study pharmacokinetics of the compound in cynomolgus monkeys
Experimental material: Cynomolgus monkeys (male, 2.5-4 kg, greater than or equal to 2 years, Hainan Jingang)
as §2, with “monkeys” for “rodents”, “cynomolgus monkeys” for “Beagle dogs”, “hours,” for “hours, respectively,”

[4] = Corneal to plasma drug concentration after eye drop administration in rats; format: in vivo; conditions: male, rat, topical, SD rats
Experimental: Experimental objective: To study the ratio of corneal to plasma drug concentration after eye drop administration in rats
Experimental material: Male SD rats, 200-300 g, 7-9 weeks old, Shanghai Lingchang
Experimental processes: The candidate compound was prepared as a clear solution, and administrating to SD rats by eye drop administration. The vehicle for eye drops was 10% hydroxypropyl β-cyclodextrin aqueous solution, and the drug concentration in the eye drops was 5 mg/mL. Corneal and whole blood samples were collected at 1 and 4 hours, respectively. Corneal was homogenized using 15 mM phosphate buffer (PBS): MeOH (2:1, v:v) buffer, then the whole blood samples were centrifuged at 3000 r for 10 min, and the supernatant plasma samples were separated. 20 μL of the plasma samples and homogenate samples were respectively mixed with 400 μL of acetonitrile solution containing internal standard to precipitate protein, and the mixture was centrifuged, then 2 μL of the supernatant was injected. The plasma concentrations were quantitatively analyzed by LC-MS/MS analysis method; the drug concentrations in the cornea and plasma were measured respectively according to different time points, and the ratio of corneal/plasma was calculated.

xerophthalmia in mice = assay: In vivo efficacy: scopolamine-induced xerophthalmia in mice (tear test, corneal fluorescence staining score); design: species or system C57BL/6J mice; conditions: scopolamine model, 0.5% eye drops 3 μL/eye 4 times/day
Description: Subcutaneous injection of scopolamine may induce the xerophthalmia in mice. Decreased tear secretion and inflammatory infiltration can be observed by tear tests and corneal fluorescence staining scores. Furthermore, it is possible to predict whether the model can reach the expected severity at the beginning of the modeling.
Experimental Design: • Twenty animals were selected from 25 female C57BL/6J mice and randomized into 4 groups by body weight via Provantis or Excel, […], and the grouping might also refer to the results of the tear test and the corneal fluorescence staining score of each animal prior to the experiment. • The mice were injected subcutaneously with scopolamine hydrobromide (3±0.5 h) for 4 times daily at 0.1 mL/animal/time on Day 1 to Day 12 of the experiment to establish xerophthalmia models in the mice. • On Day 1 to Day 13 of the experiment, animals were administrated by binocular eye drops for 4 times daily (3±0.5 h) at 3 μL/eye (on Day 13, animals in Group 1 were not administrated). […]
Tear tests and corneal fluorescence staining scores were performed on all experimental animals on Day 7 and Day 12 prior to modeling.
Criteria for corneal fluorescence staining scores: The cornea of an animal was divided into 5 regions, respectively being upper, lower, nasal, temporal and central regions, and each region was 0-3 points, and each region was scored. […]

[5] = read-out: Area under the concentration-time curve AUC
[6] = read-out: Half-life T1/2 (converted)

T4 sequence (P10635 whole entry): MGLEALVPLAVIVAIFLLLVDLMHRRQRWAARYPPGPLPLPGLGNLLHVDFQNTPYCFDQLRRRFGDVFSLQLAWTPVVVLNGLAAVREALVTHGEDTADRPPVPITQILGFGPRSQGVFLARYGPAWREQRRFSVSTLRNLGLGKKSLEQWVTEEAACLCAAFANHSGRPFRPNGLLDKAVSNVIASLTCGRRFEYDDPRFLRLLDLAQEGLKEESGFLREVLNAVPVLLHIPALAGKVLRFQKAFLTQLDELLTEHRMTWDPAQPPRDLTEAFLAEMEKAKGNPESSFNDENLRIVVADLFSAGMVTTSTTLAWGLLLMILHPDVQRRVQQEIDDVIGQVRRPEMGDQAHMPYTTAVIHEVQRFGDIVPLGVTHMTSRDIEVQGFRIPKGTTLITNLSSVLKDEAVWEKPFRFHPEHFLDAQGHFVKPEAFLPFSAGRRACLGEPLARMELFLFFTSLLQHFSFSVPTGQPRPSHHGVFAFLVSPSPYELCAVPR
T2 sequence (P11712 whole entry): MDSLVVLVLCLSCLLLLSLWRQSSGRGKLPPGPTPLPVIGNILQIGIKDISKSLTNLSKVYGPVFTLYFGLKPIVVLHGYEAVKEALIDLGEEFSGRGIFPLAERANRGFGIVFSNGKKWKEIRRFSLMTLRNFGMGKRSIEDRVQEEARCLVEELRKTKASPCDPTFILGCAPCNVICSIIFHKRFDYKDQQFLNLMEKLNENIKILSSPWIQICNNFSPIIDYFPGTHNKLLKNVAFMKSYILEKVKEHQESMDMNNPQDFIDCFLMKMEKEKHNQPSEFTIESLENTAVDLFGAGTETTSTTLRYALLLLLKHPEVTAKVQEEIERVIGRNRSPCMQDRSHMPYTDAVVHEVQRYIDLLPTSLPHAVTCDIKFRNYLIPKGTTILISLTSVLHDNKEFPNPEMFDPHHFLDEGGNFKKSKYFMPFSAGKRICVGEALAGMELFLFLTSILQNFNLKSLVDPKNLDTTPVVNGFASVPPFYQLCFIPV
T5 sequence (P08684 whole entry): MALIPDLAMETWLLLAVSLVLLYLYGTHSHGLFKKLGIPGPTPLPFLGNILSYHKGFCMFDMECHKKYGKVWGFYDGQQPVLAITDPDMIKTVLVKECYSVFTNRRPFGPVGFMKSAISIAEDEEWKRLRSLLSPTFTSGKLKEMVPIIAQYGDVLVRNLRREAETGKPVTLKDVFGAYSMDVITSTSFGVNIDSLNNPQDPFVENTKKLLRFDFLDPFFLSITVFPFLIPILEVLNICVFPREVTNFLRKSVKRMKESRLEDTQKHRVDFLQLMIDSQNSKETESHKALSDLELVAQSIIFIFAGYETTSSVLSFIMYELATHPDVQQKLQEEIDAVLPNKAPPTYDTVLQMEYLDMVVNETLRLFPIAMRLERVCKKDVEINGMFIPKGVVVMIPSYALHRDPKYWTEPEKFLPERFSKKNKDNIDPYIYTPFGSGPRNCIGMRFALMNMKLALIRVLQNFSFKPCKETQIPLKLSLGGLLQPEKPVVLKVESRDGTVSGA
T3 sequence (P33261 whole entry): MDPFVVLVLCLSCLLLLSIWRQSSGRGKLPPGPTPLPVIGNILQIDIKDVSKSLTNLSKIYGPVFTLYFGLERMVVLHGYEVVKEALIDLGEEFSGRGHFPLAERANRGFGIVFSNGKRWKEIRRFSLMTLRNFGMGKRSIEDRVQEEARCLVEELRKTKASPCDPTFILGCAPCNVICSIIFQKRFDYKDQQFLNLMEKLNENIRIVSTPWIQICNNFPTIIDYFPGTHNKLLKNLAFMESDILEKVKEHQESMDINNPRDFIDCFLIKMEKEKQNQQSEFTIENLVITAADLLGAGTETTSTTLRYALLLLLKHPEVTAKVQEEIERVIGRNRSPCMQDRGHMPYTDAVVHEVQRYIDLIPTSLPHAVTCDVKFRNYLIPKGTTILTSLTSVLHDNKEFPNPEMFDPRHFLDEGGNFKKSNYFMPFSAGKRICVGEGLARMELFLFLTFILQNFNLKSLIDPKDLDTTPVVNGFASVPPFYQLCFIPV

In the case of CC(C)(O)c1cc(F)c(-c2cnc(C(C)(C)O)c(N)c2)cc1N [Compound represented by formula (I)], the “Ability and speed of complexing aldehydes” value [1] is reported as “very significant”, the “Percentage content of complexes at 254 nm” value (shortened to “Percentage content”) ([1]; Time 10 min) is reported as 6.634% and the “Percentage content” value ([1]; Time 100 min) is reported as 20.013%. The “Percentage content” value ([1]; Time 200 min) was 29.424%, the “Percentage content” value ([1]; Time 300 min) was 36.039% and the “Area under the curve AUC” value ([1]; percentage content of complexes at 254 nm versus time, 10-300 min) was 6944 min.conversion. For the same compound, the Slope ([1]; slope of linear equation, percentage content of complexes at 254 nm versus time 10-300 min, nonanal 1.0 eq, 20-23° C.) was 0.1002, the IC50 (CYP1A2) was > 50 µM and the IC50 (CYP2C9) was > 50 µM. For the same compound, the IC50 (CYP2C19) was > 50 µM, the IC50 (CYP2D6) was > 50 µM and the IC50 (CYP3A4) was > 50 µM. The AUC [2, 5] was 4.67 µM·h, the clearance ([2]; read-out: Clearance rate) was 11.3 mL/min/kg and the half-life [2, 6] was 2.94 h. It also gave an AUC [3, 5] of 13 µM·h, a clearance ([3]; read-out: Clearance rate) of 4.6 mL/min/kg and a half-life [3, 6] of 3.91 h. The concentration at 1 h ([4]; cornea, eye drops 5 mg/mL, 1 h, read-out: Corneal concentration) was 2450 nM, the concentration at 4 h ([4]; cornea, eye drops 5 mg/mL, 4 h, read-out: Corneal concentration) was 330 nM and the Kp ([4]; cornea/plasma, 5 mg/mL, eye drop administration, read-out: Ratio of cornea/plasma) was > 10. It also gave a Kp at 1 h ([4]; cornea/plasma, eye drops 5 mg/mL, 1 h, read-out: Corneal concentration/plasma concentration C/P ratio) of 11.8, a Kp at 4 h ([4]; cornea/plasma, eye drops 5 mg/mL, 4 h, read-out: Corneal concentration/plasma concentration C/P ratio) of 12.4 and a concentration at 1 h ([4]; plasma, eye drops 5 mg/mL, 1 h, read-out: Plasma concentration) of 172 nM. The concentration at 4 h ([4]; plasma, eye drops 5 mg/mL, 4 h, read-out: Plasma concentration) was 24.4 nM, the Tear secretion (xerophthalmia in mice; FIG. 5) was “improve” and the “Corneal inflammation (corneal fluorescence staining)” value (xerophthalmia in mice; FIG. 6) was “improve”.
